Assay results from US20230405035A1, “MONTBRETIN A FUNCTIONAL FOOD” (THE UNIVERSITY OF BRITISH COLUMBIA, priority 2020, published 2023).

Columns and labels:
[1] = biological target: T1, human pancreatic α-amylase (HPA) (Homo sapiens, UniProt P04746); assay: HPA inhibition IC50 assay with colorimetric substrate CNPG3; type: biochemical; conditions: following standard bread production processes
T1 sequence (P04746 16-511): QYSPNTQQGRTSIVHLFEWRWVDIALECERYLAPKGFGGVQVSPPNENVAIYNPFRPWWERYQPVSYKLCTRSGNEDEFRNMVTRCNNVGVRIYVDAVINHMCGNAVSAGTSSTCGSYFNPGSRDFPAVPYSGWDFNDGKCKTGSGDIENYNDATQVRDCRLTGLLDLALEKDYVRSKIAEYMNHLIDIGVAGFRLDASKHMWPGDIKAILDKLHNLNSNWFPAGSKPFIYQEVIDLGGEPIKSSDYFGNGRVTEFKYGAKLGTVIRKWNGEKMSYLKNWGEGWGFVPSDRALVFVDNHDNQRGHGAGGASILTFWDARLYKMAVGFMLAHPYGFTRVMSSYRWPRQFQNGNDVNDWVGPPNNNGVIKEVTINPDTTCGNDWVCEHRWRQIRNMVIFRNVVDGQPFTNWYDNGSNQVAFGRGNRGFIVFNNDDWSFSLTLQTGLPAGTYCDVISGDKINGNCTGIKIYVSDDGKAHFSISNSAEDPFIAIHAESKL
Protocol: MbA inhibits the activity of human pancreatic α-amylase (HPA). To determine whether and to what extent the prepared bread extract inhibits HPA, enzymatic assays were performed with the colorimetric substrate 2-chloro-4-nitrophenyl-[…] (CNPG3).
HPA inhibition activity of the bread prepared as described above was determined by monitoring CNPG3 concentration. 20 μL of 200, 100, 40, 20 or 8 mM CNPG3 were combined with 170 μL buffer (50 mM phosphate pH 7.0, 100 mM NaCl) in quartz cuvettes and placed in a CARYXXX UV/Vis spectrophotometer. • 2. To each of the five cuvettes, 10 μL of HPA solution was rapidly added to the 190 μL buffered substrate solution. • 3. Spectrophotometer was set to continuously measure absorbance at 400 nm over 5 min. • 4. […] Rates were calculated from t=1 to t=3 (Δ400 nm/min), plotted against CNPG3 concentration and fit with the Michaelis-Menten equation.
20 μL of 40 mM CNPG was combined with 150 μL buffer and 20 μL MbA− or MbA+ bread extract (either ×100 or ×1000 diluted with water). […] Spectrophotometer was set to continuously measure absorbance at 400 nm over 5 min. • 4. Rates were calculated from t=1 to t=3 (Δ400 nm/min), plotted on a bar graph.
Three sets of bread extractions were done to measure IC50: • A. Bread baked with MbA (MbA+) • B. Bread baked without MbA (MbA−) • C. […] IC50s were measured using the HPA/CNPG3 assay described above: • 1. […]

[2] = HPLC analysis of MbA bread extracts (integrity of MbA after baking); type: physicochemical; conditions: MbA baked in bread to an internal temperature of 100° C., methanol extract; control = MbA added after baking (MbA*)
Protocol: MbA was added as a primary ingredient to a standard bread recipe and to evaluate the integrity of the additive after baking. To this end MbA was added (45 mg) as part of the raw dough (225 g) and separated into 25 g half-servings after kneading. After baking to an internal temperature of 100° C., the samples were extracted with methanol and subject to HPLC and kinetic analysis. In parallel, control samples containing no MbA (MbA−) or MbA added after baking (MbA*) were assessed in an analogous manner.
Two approximately 225 g batches of bread were prepared, one containing MbA the other with no MbA. For each batch: • 1. 5 mL of yeast was activated by mixing with 62.5 mL 43.3° C. water and ¼ tsp sucrose then incubated on the bench top for 10 min. • 2. ½ cup of all-purpose flour was mixed with ½ cup whole-wheat flour and ⅛ tsp NaCl (and 45 mg* MbA for the MbA+ batch only). *The target MbA concentration was 10 mg per serving of bread:
[formula] • 3. The flour mixture was combined with the activated yeast mixture and 25 mL room temperature water then stirred until a dough formed. • 4. Dough kneaded for 10 min by hand. • 5. Dough was rested at room temperature for 30 min. • 6. […]
100 μL of each bread extract was injected on HPLC as described above. MbA was quantified by integrating the MbA on the HPLC trace to standard curve of known MbA amounts.

activity retained relative to the unbaked controls (MbA*) [1]: greater than 80%
MbA intact relative to control (HPLC traces) [2]: 84%
Compound: CC1O[C@@H](O[C@@H]2CO[C@@H](Oc3c(O)cc(-c4oc5cc(O)cc(O)c5c(=O)c4O[C@@H]4OC(C)[C@H](O)[C@H](O)C4O[C@@H]4OC(COC(=O)/C=C/c5ccc(O)c(O)c5)[C@@H](O)[C@@H](O)C4O[C@@H]4OC(CO)[C@@H](O)[C@@H](O)C4O)cc3O)C(O)[C@@H]2O)C(O)[C@@H](O)[C@H]1O (some centres unmarked) [MbA, Montbretin A]
